{"source": "patent US20230366875A1", "about": "“GPCR19-P2XN RECEPTOR COMPLEX AND USE THEREOF” (SEOUL NATIONAL UNIVERSITY R&DB FOUNDATION, priority 2020, published 2023)", "key": {"P2X7 receptor [1]": {"system": "P2X7 receptor", "test": "Ca++ mobilization by P2X7 receptor in keratinocytes", "type": "cell-based, human", "details": "HaCaT cells, IL-1β (10 ng/ml)+TNF-α (10 ng/ml), HY209 200, 400 and 800 ng/ml, 20 μM BzATP or ATP"}, "NLRP3 inflammasome [2]": {"system": "NLRP3 inflammasome", "test": "Inflammasomal components in BMDM cells (immunostaining)", "type": "cell-based, mouse", "details": "LPS (10 ng/ml)+HY209 (400 ng/ml) 1 hour, BzATP (300 μm) 1 hour", "method": "(§1) After that, in order to stain inflammasomal components, the cells were stained with anti-NLRP3 conjugated antibody (Abeam, Cambridge, UK) and anti-ASC Ab (Clone B-3, Santa Cruz Biotechnology, Inc. Dallas, Texas, USA) at 4° C. overnight, and then with Alexa Fluor 488-labeled or Alexa Fluor 532-labeled secondary conjugated antibody (Invitrogen, Carlsbad, CA, USA)."}, "IL-1β [3]": {"system": "IL-1β", "test": "IL-1β ELISA of BMDM culture supernatant", "type": "cell-based, mouse", "details": "BMDM cells", "method": "The cells were treated with ATP (500 μm) or BzATP (300 μm) for an additional 1 hour before recovery of the culture supernatant of the sample. IL-1β concentration in the culture supernatant recovered was measured according to the manufacturer's procedure using the IL-1β ELISA kit (R & D Systems Minneapolis, MN, USA) (FIG. 4A).\nIL-1β concentration in the culture supernatant recovered was measured according to the manufacturer's procedure using the IL-1β ELISA kit (R & D Systems Minneapolis, MN, USA) (FIG. 4B)."}, "NLRP3 inflammasome [4]": {"system": "NLRP3 inflammasome", "test": "Inflammasomal components in HaCaT cells (immunostaining)", "type": "cell-based, human", "details": "TNF-α (20 ng/ml)+HY209 (400 ng/ml) 3 hours, then DNCB (5 μg/ml) 24 hours", "method": "as §1"}, "P2X7": {"biological_target": "P2X7 (Homo sapiens, UniProt Q99572)", "sequence (Q8TDU6 whole entry partner)": "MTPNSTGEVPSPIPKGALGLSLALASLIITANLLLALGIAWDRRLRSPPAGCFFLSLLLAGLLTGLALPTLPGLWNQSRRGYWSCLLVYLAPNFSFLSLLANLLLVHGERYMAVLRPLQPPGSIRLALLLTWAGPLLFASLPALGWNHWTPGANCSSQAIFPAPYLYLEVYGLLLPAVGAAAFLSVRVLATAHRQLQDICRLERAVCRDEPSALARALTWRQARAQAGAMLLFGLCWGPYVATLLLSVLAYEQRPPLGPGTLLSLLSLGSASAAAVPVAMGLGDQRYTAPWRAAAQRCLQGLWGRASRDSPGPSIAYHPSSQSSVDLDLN", "sequence (Q99572 whole entry)": "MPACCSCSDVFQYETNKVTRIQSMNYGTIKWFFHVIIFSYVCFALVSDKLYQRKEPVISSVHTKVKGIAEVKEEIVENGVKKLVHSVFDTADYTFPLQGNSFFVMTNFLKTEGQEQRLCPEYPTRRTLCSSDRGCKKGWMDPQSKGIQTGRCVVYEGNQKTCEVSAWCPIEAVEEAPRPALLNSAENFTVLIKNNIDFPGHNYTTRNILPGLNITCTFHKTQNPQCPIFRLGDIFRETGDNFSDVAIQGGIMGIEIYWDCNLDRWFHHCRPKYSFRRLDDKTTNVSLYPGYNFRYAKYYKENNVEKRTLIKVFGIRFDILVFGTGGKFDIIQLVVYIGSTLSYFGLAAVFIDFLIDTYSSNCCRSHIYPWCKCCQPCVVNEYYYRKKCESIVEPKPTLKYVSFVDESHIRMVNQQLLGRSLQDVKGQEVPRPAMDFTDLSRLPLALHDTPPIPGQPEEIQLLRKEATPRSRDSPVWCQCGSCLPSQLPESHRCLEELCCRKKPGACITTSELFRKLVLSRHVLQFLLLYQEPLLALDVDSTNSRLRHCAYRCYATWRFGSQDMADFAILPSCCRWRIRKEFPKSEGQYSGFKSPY", "test": "Potassium ion channel assay in PMA-differentiated U937 cells", "details": "U937 cells differentiated by PMA (25 nM), BzATP (600 μM), HY209 (1 μM) 1 hour before BzATP", "procedure": "Specifically, U937 cells were used to investigate whether the activity of ion channel was changed by the regulation of GPCR19. U937 cells were differentiated by treatment with PMA (25 nM). After that, a fluorescent probe was added and the reaction was conducted for 1 hour. Thereafter, the cells were treated with BzATP (600 μM), and the cumulative fluorescence value was measured using an ELISA instrument to investigate whether the ion channel was activated."}, "IL-1β [5]": {"system": "IL-1β", "test": "IL-1β ELISA of HaCaT culture supernatant", "type": "cell-based, human", "details": "HaCaT cells", "method": "Thereafter, the IL-1β concentration was measured according to the manufacturer's procedure using the IL-113 ELISA kit (R&D Systems Minneapolis, MN, USA) (FIG. 3B)."}, "P2X7 receptor [6]": {"biological_target": "T1, P2X7 receptor (Mus musculus, UniProt Q9Z1M0)", "T1 construct": "endogenous in cells; host or cells: primary BMDM (bone marrow-derived macrophages)", "T1 sequence (Q80SS6 whole entry partner)": "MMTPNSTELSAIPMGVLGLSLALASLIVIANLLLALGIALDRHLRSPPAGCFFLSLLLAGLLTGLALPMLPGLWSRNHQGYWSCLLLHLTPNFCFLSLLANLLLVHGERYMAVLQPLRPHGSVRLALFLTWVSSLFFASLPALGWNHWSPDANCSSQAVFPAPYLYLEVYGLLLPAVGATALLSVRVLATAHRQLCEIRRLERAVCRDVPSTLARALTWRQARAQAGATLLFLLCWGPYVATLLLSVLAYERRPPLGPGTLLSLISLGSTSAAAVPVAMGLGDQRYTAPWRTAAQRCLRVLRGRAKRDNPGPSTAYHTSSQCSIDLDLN", "T1 sequence (Q9Z1M0 whole entry)": "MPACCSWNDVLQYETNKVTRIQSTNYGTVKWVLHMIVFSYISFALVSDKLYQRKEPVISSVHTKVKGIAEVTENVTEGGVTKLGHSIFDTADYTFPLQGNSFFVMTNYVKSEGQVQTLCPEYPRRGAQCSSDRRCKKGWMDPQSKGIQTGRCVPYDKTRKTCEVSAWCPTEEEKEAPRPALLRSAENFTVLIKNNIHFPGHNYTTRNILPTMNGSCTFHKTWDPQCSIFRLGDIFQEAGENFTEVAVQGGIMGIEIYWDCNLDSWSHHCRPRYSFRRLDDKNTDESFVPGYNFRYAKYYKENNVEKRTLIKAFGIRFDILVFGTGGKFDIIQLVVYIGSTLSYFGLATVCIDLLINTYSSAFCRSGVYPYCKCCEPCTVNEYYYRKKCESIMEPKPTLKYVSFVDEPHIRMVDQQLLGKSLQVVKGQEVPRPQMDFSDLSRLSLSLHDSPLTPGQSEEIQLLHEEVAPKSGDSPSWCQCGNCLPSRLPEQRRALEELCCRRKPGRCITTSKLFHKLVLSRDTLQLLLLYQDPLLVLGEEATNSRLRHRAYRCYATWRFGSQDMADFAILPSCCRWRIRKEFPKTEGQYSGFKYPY", "test": "Ca++ mobilization by P2X7 receptor in macrophages", "type": "cell-based", "details": "BMDM cells, LPS (100 ng/ml)+HY209 (400 ng/ml) 1 hour, ATP (20 μM) or BzATP (40 μM)", "method": "Specifically, BMDMs were obtained from three normal (wild-type, WT), GPCR19 KO or P2X7 KO mice. Then, the obtained BMDMs were treated with 20 μM ATP, attached to a glass coverslip, and then incubated in a physiological external solution consisting of NaCl 138 mM, KCl 5.6 mM, MgCl2 2 mM, HEPES 10 mM and pH 7.4 glucose 10 mM with 2 μM Fluo-4/AM in a 37° C. incubator for 30 minutes to observe intracellular Ca^++ mobilization. After that, the BMDMs were transferred to an open perfusion chamber to remove residual Fluo-4/AM, and the fluorescence level was measured using a fluorescence microscope (Nikon, Tokyo, Japan) under the conditions of excitation 494 nm and emission 506 nm. […]\nAfter the treatment, Ca^++ mobilization measurement was started, and the cells were treated with ATP (20 μM) or BzATP (40 μM) in the presence of 2 mM CaCl2) and 0.5 mM MgCl2 50 seconds after the start of measurement. Intracellular Ca^++ mobilization was measured with […] using a fluorescence microscope in the same manner as in Example <2-1>, and graphed (FIG. 2D, left panels in first and second rows). After three independent experiments, the sum of the measured data was presented (FIG. 2D, right panels in first and second rows)."}, "P2X7 receptor [7]": {"system": "P2X7 receptor", "test": "Ca++ mobilization by P2X7 receptor in microglia", "type": "cell-based, mouse", "details": "BV2 cells, Aβ (2 μM)+HY209 (400 ng/ml) 1 hour, ATP (20 μM) or BzATP (40 μM)"}, "[8]": {"system": "TNF-α, RANTES, MCP-1, IL-1β and IL-8", "test": "Cytokine measurement using cytometric bead array (CBA)", "type": "cell-based", "details": "1 μM; compared with INT777, crisaborole, MCC950, A740003, GW791343, tofacitinib, prednisolone", "method": "Specifically, cocktail beads were prepared by mixing fluorescent beads bound with antibodies to five types of inflammatory cytokines, TNF-α, RANTES, MCP-1, IL-1β and IL-8 to be confirmed. Next, 50 μl of the prepared cocktail beads, the prepared sample, and the standard sample were reacted at room temperature for 1 hour in a dark environment. […] As a positive control group, 1 μM of prednisolone, a corticosteroid was used. The reaction mixture was transferred to a new tube by the required amount so that the phycoerythrin (PE) detection reagent was 1 μl/sample, and washed with the washing buffer, the capture bead diluent was added so as to be contained by 50 μl per each sample through the calculation of volume, and the reaction was conducted at room temperature for 15 minutes in a dark environment. Next, 50 μl of the prepared PE detection reagent was added into the tube in which the cocktail beads, the prepared sample, and the standard sample were reacting, mixing was thoroughly performed, and then the reaction was further conducted for 2 hours. After all reactions were completed, 1 ml of washing buffer was added, centrifugation was performed at 200 g for 5 minutes, then the supernatant was removed, 300 μl of washing buffer was added, and then quantitative measurement of the 5 types of inflammatory cytokines was performed using a flow cytometer (CANTO II FACS, BD Biosciences, US)."}}}
{"smiles": "C[C@H](CCC(=O)NCCS(=O)(=O)O)[C@H]1CC[C@H]2[C@@H]3CC[C@@H]4C[C@H](O)CC[C@]4(C)[C@H]3C[C@H](O)[C@]12C", "note": "[HY209, sodium taurodeoxycholate]", "values": [{"measurement": "Ca++ mobilization increased under the influence of IL-1β and TNF-α", "setting": "P2X7 receptor [1]", "value": "significantly decreases as the concentration of HY209 increases"}, {"measurement": "increase in hASC expression", "setting": "NLRP3 inflammasome [2]", "value": "suppressed"}, {"measurement": "increase in hNLRP3-ASC oligomerization", "setting": "NLRP3 inflammasome [2]", "value": "suppressed"}, {"measurement": "increase in hNLRP3 expression", "setting": "NLRP3 inflammasome [2]", "value": "suppressed"}, {"measurement": "increase in the production of IL-1β", "setting": "IL-1β [3]; HY209 (400 ng/ml) after treatment with LPS+BzATP (posttreatment, 3 hours after LPS)", "value": "suppressed"}, {"measurement": "increase in the production of IL-1β", "setting": "IL-1β [3]; HY209 (400 ng/ml) before treatment with LPS+ATP (pretreatment, 1 hour before LPS)", "value": "suppressed"}, {"measurement": "increase in the production of IL-1β", "setting": "IL-1β [3]; LPS (10 ng/ml)+ATP (500 μm), HY209 0, 25, 100, 400 ng/ml", "value": "suppressed in a HY209 concentration-dependent manner"}, {"measurement": "increase in the production of IL-1β", "setting": "IL-1β [3]; LPS (10 ng/ml)+BzATP (300 μm), HY209 0, 25, 100, 400 ng/ml", "value": "suppressed in a HY209 concentration-dependent manner"}, {"measurement": "increase in hASC expression", "setting": "NLRP3 inflammasome [4]", "value": "suppressed"}, {"measurement": "increase in hNLRP3-ASC oligomerization", "setting": "NLRP3 inflammasome [4]", "value": "suppressed"}, {"measurement": "increase in hNLRP3 expression", "setting": "NLRP3 inflammasome [4]", "value": "suppressed"}, {"measurement": "decrease of cumulative fluorescence value increased by BzATP", "setting": "P2X7", "value": 100, "unit": "%"}, {"measurement": "increase in the production of IL-1β", "setting": "IL-1β [5]; TNF-α (20 ng/ml)+DNCB (5 μg/ml)+HY209 (400 ng/ml), 24 hours", "value": "suppressed"}, {"measurement": "increase in the production of IL-1β", "setting": "IL-1β [5]; TNF-α+DNCB+HY209 (400 ng/ml) 24 hours, then ATP 3 hours", "value": "suppressed"}, {"measurement": "Ca++ mobilization increased under the influence of LPS", "setting": "P2X7 receptor [6]", "value": "significantly decreases"}, {"measurement": "Ca++ mobilization increased under the influence of Aβ", "setting": "P2X7 receptor [7]", "value": "significantly decreases"}, {"measurement": "inhibitory effect on five types of inflammatory cytokines produced by the inflammasome stimulation signal", "setting": "[8]", "value": "superior"}]}
